Laboratory results as given in patent publication US12543733B2 (priority 2020, dated 2026).
≈ marks a conversion by molar mass, not a printed value. Where a name gives a salt, the structure may show the parent alone. Read-outs that look alike come from different tables or passages of the source.

How the values were obtained:
Tribolium castaneum = experiment: Fumigation assay (fumigant toxicity) against adults of stored-product insects; assay type: in vivo; settings: for LC50: Tribolium castaneum
Experimental: (§1) Culturing of Insects: The stored product insect rice weevil (S. oryzae L.) was reared on whole wheat and the rust-red flour beetle (T. castaneum Herbst.) was reared on wheat flour with 5% yeast. Rice weevil and flour beetle were maintained at 23.6±2.5° C., 70% relative humidity and a photoperiod of 12:12 (Light:Dark). Corcyra cephalonica were reared on medium consisting of finely ground rice and maize flour in the ratio 1:1 (w/w) under laboratory conditions (27±1° C., 75±5% R.H. with a 12:12 h light:dark cycle.

Sitophilus oryzae = experiment: as above; assay type: in vivo; settings: for LC50: Sitophilus oryzae
Experimental: as §1

V. radiata plants = experiment: Plant growth observation after seed treatment; assay type: in vivo
[1] = test system: stored grain insect pests; experiment: Fumigation assay, range over the tested species
Experimental: Measuring insecticidal activity of Isosecotanapartholide and Lemon grass oil (Cymbopogon flexuosus) by Fumigation Assay: The insecticidal activity of Isosecotanapartholide and lemon grass oil was assessed by fumigation assay against adults of stored-product insects (Corcyra cephalonica, Sitophilus oryzae and Tribolium castaneum). For each treatment, 50 individuals were tested for S. oryzae and T. castaneum; particularly adults were released into 0.85 L desiccators that served as the fumigation chambers. In each desiccator, a Whatman No. 1 filter circle (diameter: 9 cm) was placed to serve as an evaporating surface for injecting active extract. […] Five replicates were used for each dosage and LC50 was determined from dose response data using probit analysis. Insect mortality for isosecotanapartholide was recorded after 24 hours of exposure. Insects were considered dead when no leg or antennal movements were observed. Morality rate was calculated using Abbott formula for natural mortality in untreated (Abbott, 1925, Journal of Economic Entomology, 18, 265-267).
For each time point, 20 adults stored grain pests were used and determined percentage mortality.

C. arietinum plants = experiment: Plant growth observation after seed treatment; assay type: in vivo
[2] = test system: C. arietinum (Chick pea) seeds; experiment: Seed germination test; assay type: in vivo; settings: for % germination (Mean ± SE): Chick pea
Experimental: (§2) In order to assess the effect of isosecotanapartholide on plant growth and seed germination, particularly 50 seeds of Chickpea and Green gram sample were treated with isosecotanapartholide at 50 and 100 ppm and germination tests were done at […] and 72 hours of exposure treatments. From each sample, twenty grains seeds were randomly selected from the treatment and soaked for about 30 minutes in distilled water, and kept on filter paper (paper towel) in a petri dish, moistened everyday with distilled water, and allowed to germinate at room temperature (25±2° C.). After 48 and 72 hours, germinated seeds were counted and percentage germination was determined as in Radwan et al. 2019 (Annals of Agricultural Sciences, 64(2), 183-187). Three replications of each were made for both treatment and control.
(§3) From each sample, twenty grains seeds were randomly selected from the treatment and soaked for about 30 minutes in distilled water, and kept on filter paper (paper towel) in a petri dish, moistened everyday with distilled water, and allowed to germinate at room temperature (25±2° C.). After 48 and 72 hours, germinated seeds were counted and percentage germination was determined as in Radwan et al. 2019 (Annals of Agricultural Sciences, 64(2), 183-187). Three replications of each were made for both treatment and control.

[3] = test system: V. radiata (Green gram) seeds; experiment: Seed germination test; assay type: in vivo; settings: for % germination (Mean ± SE): Green gram
Experimental: as §2, §3

Corcyra cephalonica = experiment: Fumigation assay (fumigant toxicity) against adults of stored-product insects; assay type: in vivo; settings: C. cephalonica adults, mortality after 24 hours of exposure
Experimental: as §1

adults of S. oryzae = settings: 24 hours of exposure time; cited from earlier work
housefly = settings: cited from earlier work
[4] = comparison with other fumigants, fumigation bioassay
[5] = in comparison with control, observed for 2 weeks
[6] = comparison with other fumigants, fumigation bioassay, read-out: LC50

## P [Phosphine]
Tribolium castaneum; [4]
  LC50: 9.8 ng/mL (≈ 0.288 µM)
Sitophilus oryzae; [4]
  LC50: 7.8 ng/mL (≈ 0.229 µM)

## C=C1C(=O)O[C@H](C2=C(C)[C@@H](O)CC2=O)[C@H]1CCC(C)=O [Isosecotanapartholide, (4S,5S)-5-[(3S)-3-hydroxy-2methyl-5-oxocyclopent-1-en-1-yl]-3-methylidene-4-(3oxobutyl)dihydrofuran-2(3H)-one]
V. radiata plants; 50 ppm, FIG. 4 (B)
  response on plant growth: comparable to control
V. radiata plants; [5]
  adverse effect on plant growth: did not cause any adverse effect
[1]
  LC50 values: 1.7 to 2.2 ng/mL
  LC90 range: 3.2 to 4.0 ng/mL
C. arietinum plants; 50 ppm, FIG. 4 (A)
  response on plant growth: comparable to control
C. arietinum plants; [5]
  adverse effect on plant growth: did not cause any adverse effect
[2]; C. arietinum, in comparison with control
  adverse effect on seed germination: did not cause any adverse effect
[2]; 50 PPM, 24 hours
  % germination (Mean ± SE): 96.00 ± 2.30%
[2]; 50 PPM, 72 hours
  % germination (Mean ± SE): 97.33 ± 1.33%
[2]; 100 PPM, 24 hours
  % germination (Mean ± SE): 94.67 ± 1.33%
[2]; 100 PPM, 72 hours
  % germination (Mean ± SE): 96.00 ± 2.30%
[3]; 50 PPM, 24 hours
  % germination (Mean ± SE): 93.33 ± 1.33%
[3]; 50 PPM, 72 hours
  % germination (Mean ± SE): 94.67 ± 1.33%
[3]; 100 PPM, 24 hours
  % germination (Mean ± SE): 96.00 ± 2.30%
[3]; 100 PPM, 72 hours
  % germination (Mean ± SE): 96.00 ± 2.30%
[3]; V. radiata, in comparison with control
  adverse effect on seed germination: did not cause any adverse effect
Corcyra cephalonica
  LC90: 3.296 ng/mL (≈ 0.0118 µM)
Corcyra cephalonica; Corcyra cephalonica
  LC50: 1.83 ng/mL (≈ 0.00658 µM)
Tribolium castaneum; T. castaneum adults, fumigant toxicity, mortality after 24 hours of exposure
  LC90: 3.946 ng/mL (≈ 0.0142 µM)
Tribolium castaneum; T. castaneum adults, fumigant toxicity, mortality after 24 hours of exposure, read-out: LC50
  LC50: 2.19 ng/mL (≈ 0.00787 µM)
Tribolium castaneum; [6]
  LC50: 2.19 ng/mL (≈ 0.00787 µM)
Sitophilus oryzae; S. oryzae adults, fumigant toxicity, mortality after 24 hours of exposure
  LC90: 3.274 ng/mL (≈ 0.0118 µM)
Sitophilus oryzae; S. oryzae adults, fumigant toxicity, mortality after 24 hours of exposure, read-out: LC50
  LC50: 1.82 ng/mL (≈ 0.00654 µM)
Sitophilus oryzae; [6]
  LC50: 1.82 ng/mL (≈ 0.00654 µM)

## C=CCN=C=S [allylisothiocyanate]
Adults of S. oryzae
  concentration found toxic: less than 6.3 μl/l

## CCOC=O [Ethyl formate]
Tribolium castaneum; [6]
  LC50: 1.12 ng/mL
Sitophilus oryzae; [6]
  LC50: 0.72 ng/mL

## Cc1ccc(C(C)C)cc1O [Carvacol]
Tribolium castaneum; [4]
  LC50: 17.0 ng/mL (≈ 0.113 µM)
Sitophilus oryzae; [4]
  LC50: 14.2 ng/mL (≈ 0.0945 µM)

## CC12CCC(CC1)C(C)(C)O2 [1,8 Cineole]
housefly
  LD50: 118 μg/fly
Tribolium castaneum; [6]
  LC50: 47 ng/mL (≈ 0.305 µM)
Sitophilus oryzae; [6]
  LC50: 31 ng/mL (≈ 0.201 µM)

## C=CC(C)(O)CCC=C(C)C (centres unmarked) [Linalool]
Tribolium castaneum; [6]
  LC50: 49.8 ng/mL (≈ 0.323 µM)
Sitophilus oryzae; [6]
  LC50: 39.2 ng/mL (≈ 0.254 µM)

## CBr [Methyl bromide]
Tribolium castaneum; [6]
  LC50: 8.4 ng/mL
Sitophilus oryzae; [6]
  LC50: 3.6 ng/mL
